Where a name gives a salt, the structure may show the parent alone.
Key:
[1] = tested on: dopamine releasing properties; assay: dopamine releasing properties (no method described); conditions: in contrast to Win 35,428 and cocaine
[2] = target: reuptake of dopamine in synaptosomes of rat forebrain (Rattus norvegicus, UniProt P23977); assay: biochemical
Procedure: Fresh whole forebrain (at 0-4°C) from male Wistar rats (150-200 g) is homogenized in a glass homogenizer with a Teflon pestle in 20 x volumes 0.32M sucrose. The homogenate is centrifuged at 1000 x g (∼2900 rpm) for 10 min. The pellet is discarded and the supernatant is used for uptake assays.
The samples are thoroughly mixed and incubated 10 min at 37°C followed by 2 min at 0°C. After incubation the samples are poured directly onto Whatman GF/C glass fibre filters under suction and immediately washed with 2 x 5 ml ice-cold 0.9% saline (NaCl) buffer. To the filter is added 3 ml of scintillation fluid, and the amount of radioactivity on the filters is determined by conventional liquid scintillation counting.

[3] = tested on: haloperidol-induced catalepsy; assay: animal or person; conditions: Rattus norvegicus, read-out: Minimum effective dose (peroral administration)
Source text: The principle behind the haloperidol catalepsy test relates to the fact that the drug haloperidol (Serenase®) induces a receptor blockade of post synaptic dopamine receptors within the dopamine innervated corpus striatum of the rat brain. Following the blockade of active dopamine neurotransmission of the striatum a state of rigid immobility is induced, during which the rat can be placed in various totally abnormal immobile postures involving the forelegs and the whole body.
The day before testing, the rats weighing 200-250 g are housed 2 and 2 together in standard macrolon cages.
The testing for the immobile catalepsy syndrome includes 4 tests performed in the following consecutive order: • 1) a vertical wire netting (40x40 cm high).The meshes (openings) of the nettings are approximately 1x2cm. • 2) a horizontal bar 9 cm above the floor • 3) a 9 cm high block (bar) • 4) a 3 cm high block (cork)
The rats were scored for the immobile cataleptic syndrome every 15 min in all 4 tests starting 15 min after the haloperidol injection. The intensity of catalepsy was tested during 10 sec in all tests and evaluated according to a criteria of 10 sec of total immobility for a score of 2.
The rat was placed in the middle of the vertical wire netting, then on the horizontal bar in an extended position with support by both the forelegs on the bar. […]

Chain of reuptake of dopamine in synaptosomes of rat forebrain (P23977 whole entry): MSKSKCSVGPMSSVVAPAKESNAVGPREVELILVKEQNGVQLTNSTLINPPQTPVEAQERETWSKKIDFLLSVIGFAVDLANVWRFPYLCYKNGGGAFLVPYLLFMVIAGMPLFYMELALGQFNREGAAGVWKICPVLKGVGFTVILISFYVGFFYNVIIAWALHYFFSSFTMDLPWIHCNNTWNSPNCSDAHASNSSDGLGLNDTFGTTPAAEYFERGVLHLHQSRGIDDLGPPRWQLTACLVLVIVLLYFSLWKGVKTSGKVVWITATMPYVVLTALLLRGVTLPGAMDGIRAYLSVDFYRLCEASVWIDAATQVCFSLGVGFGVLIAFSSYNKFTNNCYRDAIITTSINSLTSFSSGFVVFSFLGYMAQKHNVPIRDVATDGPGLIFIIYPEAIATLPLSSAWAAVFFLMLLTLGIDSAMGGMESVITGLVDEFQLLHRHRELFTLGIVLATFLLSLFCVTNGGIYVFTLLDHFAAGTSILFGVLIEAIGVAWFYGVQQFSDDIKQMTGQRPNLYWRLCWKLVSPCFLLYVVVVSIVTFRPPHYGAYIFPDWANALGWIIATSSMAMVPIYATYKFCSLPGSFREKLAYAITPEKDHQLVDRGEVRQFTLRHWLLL

SMILES	IC50 [2]	further results
COC(=O)[C@@H]1[C@@H](c2ccc(F)cc2)C[C@@H]2CC[C@H]1N2C [trans isomer of Win 35,428, (1R,2R,3S)-2-carbomethoxy-3-(4-fluorophenyl)tropane]	–	dopamine releasing properties [1]: essentially free of dopamine releasing properties
Cc1ccc([C@H]2C[C@@H]3CC[C@H]([C@@H]2c2nc(-c4ccccc4)no2)N3C)cc1 [(1R,2R,3S)-2-(3-Phenyl-1,2,4-oxadiazol-5-yl)-3-(4-methylphenyl)-tropane, hydrochloride]	960 nM	–
CN1[C@H]2CC[C@@H]1[C@H](c1nc(-c3ccccc3)no1)[C@@H](c1ccc(Cl)cc1)C2 [(1R,2R,3S)-2-(3-Phenyl1,2,4-oxadiazol-5-yl)-3-(4-chlorophenyl)-tropane, hydrochloride]	330 nM	–
CN1[C@H]2CC[C@@H]1[C@H](c1nc(-c3ccccc3)no1)[C@@H](c1ccc3ccccc3c1)C2 [(1R,2R,3S)-2-(3-Phenyl-1,2,4-oxadiazol-5-yl)-3-(2-naphthyl)tropane, hydrochloride]	540 nM	–
Cc1noc([C@@H]2[C@@H](c3ccc(Cl)cc3)C[C@@H]3CC[C@H]2N3C)n1.Cl [(1R,2R,3S)-2-(3-Methyl-1,2,4-oxadiazol-5-yl)-3-(4-chlorophenyl)-tropane, hydrochloride]	–	minimal effective dose [3]: > 1 mg/kg

— patent EP0604355B1, “Akyl Substituted heterocyclic compounds” (N[…]/S, priority 1992, dated 1994)
